Measured values: the supplement of paper PMC11061612

Tests used:
[1] = test system: JHH-2 (Hepatocellular Carcinoma); assay: combination Emax (second highest fraction inhibited in the dose matrix, 72 h); higher = more inhibition; extreme values may be limits of the assay
Summary of the method: (§1)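 Cell lines grown in DMEM/F12 or RPMI with 10% FBS were plated in 1536-well plates and held 24 hours at 37°C, 5% CO2 before 72 hours of exposure to two-drug dose matrices, with DMSO typically at 0.2%. CellTiter-Glo 2.0 luminescence gave viability, which was converted to inhibition. Vehicle wells were set to 0 and blank wells to 1. Combination Emax is the second-highest inhibition in the matrix, and Bliss excess is the observed combination effect minus the expected EA + EB − EA·EB, where EA and EB are the single-agent effects.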

[2] = test system: NCI-H2087 (Lung Adenocarcinoma); assay: as above
Summary of the method: as §1

[3] = test system: JHU-022 (Oral Cavity Carcinoma); assay: as above
Summary of the method: as §1

[4] = test system: 769-P (Kidney Carcinoma); assay: as above
Summary of the method: as §1

[5] = test system: MDA-MB-436 (Breast Carcinoma); assay: as above
Summary of the method: as §1

[6] = test system: NCI-H441 (Lung Adenocarcinoma); assay: as above
Summary of the method: as §1

[7] = test system: NCI-H1651 (Lung Adenocarcinoma); assay: as above
Summary of the method: as §1

[8] = test system: OACp4C (Esophageal Adenocarcinoma); assay: Bliss excess, mean over the matrix (fraction); higher = more synergy
Summary of the method: as §1

[9] = test system: JVM-2 (B-Cell Non-Hodgkin's Lymphoma); assay: as above
Summary of the method: as §1

[10] = test system: DU-4475 (Breast Carcinoma); assay: as above
Summary of the method: as §1

[11] = test system: HT55 (Colorectal Carcinoma); assay: as above
Summary of the method: as §1

[12] = test system: CA46 (Burkitt's Lymphoma); assay: as above
Summary of the method: as §1

[13] = test system: G-402 (Other Solid Carcinomas); assay: as above
Summary of the method: as §1

[14] = test system: KP-N-YN (Neuroblastoma); assay: as above
Summary of the method: as §1

[15] = test system: CESS (Acute Myeloid Leukemia); assay: as above
Summary of the method: as §1

[16] = test system: Jurkat (T-Lymphoblastic Leukemia); assay: as above
Summary of the method: as §1

[17] = test system: NCI-H716 (Colorectal Carcinoma); assay: as above
Summary of the method: as §1

[18] = test system: DMS-53 (Small Cell Lung Carcinoma); assay: as above
Summary of the method: as §1

[19] = test system: COLO-792 (Melanoma); assay: as above
Summary of the method: as §1

[20] = test system: EW-16 (Ewing's Sarcoma); assay: as above
Summary of the method: as §1
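Throughout, for Bliss excess, mean over the matrix: after 72 h of two-drug dosing.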

Q: What does the source list for COc1cc2c(cc1OCCCCCOc1cc3c(cc1OC)C(=O)N1C=C(C)C[C@H]1C=N3)N=C[C@@H]1CC(C)=CN1C2=O [SG3199] + O=C(c1cc(Cc2n[nH]c(=O)c3ccccc23)ccc1F)N1CCN(C(=O)C2CC2)CC1 [Olaparib] (first compound max 0.001 µM, 7x7, partner max 10 µM)?
A: combination Emax [1]: 0.192; combination Emax [2]: 0.106; combination Emax [3]: 0.0543; combination Emax [4]: 0.174; combination Emax [5]: 0.121; combination Emax [6]: 0.131; combination Emax [7]: 0.274; Bliss excess [8]: -0.0268; Bliss excess [9]: -0.0219; Bliss excess [10]: 0.0741; Bliss excess [11]: -0.0358; Bliss excess [12]: -0.0357; Bliss excess [13]: -0.0289; Bliss excess [14]: -0.0387; Bliss excess [15]: -0.0156; Bliss excess [16]: 0.0874; Bliss excess [17]: -0.0322; Bliss excess [18]: -0.0259; Bliss excess [19]: -0.0373; Bliss excess [20]: -0.0066

Q: Cc1cc2ncnn2cc1Nc1ncc2c(n1)n(C1CCOCC1)c(=O)n2C [AZD7648] + C=CCn1c(=O)c2cnc(Nc3ccc(N4CCN(C)CC4)cc3)nc2n1-c1cccc(C(C)(C)O)n1 [AZD1775] (first compound max 10 µM, partner max 1 µM) was tested. Which “combination Emax” value [1] did it give?
A: The value was 0.7.

Q: And the “combination Emax” value [2]?
A: Its value is 0.353.

Q: And the “combination Emax” value [3]?
A: The value was 0.497.

Q: What about the “combination Emax” value [4] of the same molecule?
A: Its value is 0.829.

Q: And the “combination Emax” value [5]?
A: Its value is 0.362.

Q: What about the “combination Emax” value [6] of the same molecule?
A: Its value is 0.444.

Q: And the “combination Emax” value [7]?
A: Its value is 0.631.

Q: What about the Bliss excess [8] of the same molecule?
A: The Bliss excess was -0.0303.

Q: What about the Bliss excess [9] of the same molecule?
A: The Bliss excess was -0.0458.

Q: What about the Bliss excess [10] of the same molecule?
A: Its Bliss excess is -0.051.

Q: And the Bliss excess [11]?
A: The Bliss excess was -0.0027.

Q: What about the Bliss excess [12] of the same molecule?
A: The Bliss excess was -0.0416.

Q: And the Bliss excess [13]?
A: Its Bliss excess is 0.0111.

Q: What about the Bliss excess [14] of the same molecule?
A: Its Bliss excess is -0.0428.

Q: And the Bliss excess [15]?
A: Its Bliss excess is 0.028.

Q: What about the Bliss excess [16] of the same molecule?
A: Its Bliss excess is 0.0183.

Q: What about the Bliss excess [17] of the same molecule?
A: The Bliss excess was 0.0448.

Q: What about the Bliss excess [18] of the same molecule?
A: The Bliss excess was 0.0149.

Q: What about the Bliss excess [19] of the same molecule?
A: Its Bliss excess is 0.0087.

Q: What about the Bliss excess [20] of the same molecule?
A: Its Bliss excess is -0.0471.

Q: How did the “combination Emax” value [1] turn out when C[C@@H](c1ccc2nccn2c1)n1nnc2ncc(-c3cnn(C)c3)nc21 [Savolitinib] + CC1(C)CCC(CN2CCN(c3ccc(C(=O)NS(=O)(=O)c4ccc(NCC5CCOCC5)c([N+](=O)[O-])c4)c(Oc4cnc5[nH]ccc5c4)c3)CC2)=C(c2ccc(Cl)cc2)C1 [Venetoclax] (first compound max 1 µM, 7x7, partner max 1 µM) was run?
A: The value was 0.0863.

Q: And the “combination Emax” value [2]?
A: The value was 0.184.

Q: What about the “combination Emax” value [3] of the same molecule?
A: Its value is 0.257.

Q: What about the “combination Emax” value [4] of the same molecule?
A: Its value is 0.0824.

Q: And the “combination Emax” value [5]?
A: Its value is 0.28.

Q: What about the “combination Emax” value [6] of the same molecule?
A: The value was 0.171.

Q: And the “combination Emax” value [7]?
A: The value was 0.186.

Q: What about the Bliss excess [8] of the same molecule?
A: The Bliss excess was -0.0367.

Q: And the Bliss excess [9]?
A: Its Bliss excess is -0.0472.

Q: And the Bliss excess [10]?
A: The Bliss excess was -0.0533.

Q: What about the Bliss excess [11] of the same molecule?
A: The Bliss excess was -0.0562.

Q: What about the Bliss excess [12] of the same molecule?
A: The Bliss excess was -0.0366.

Q: What about the Bliss excess [13] of the same molecule?
A: Its Bliss excess is -0.067.

Q: And the Bliss excess [14]?
A: The Bliss excess was -0.0927.

Q: What about the Bliss excess [15] of the same molecule?
A: The Bliss excess was -0.0517.

Q: And the Bliss excess [16]?
A: Its Bliss excess is -0.0723.

Q: And the Bliss excess [17]?
A: Its Bliss excess is -0.0423.

Q: What about the Bliss excess [18] of the same molecule?
A: Its Bliss excess is -0.0446.

Q: What about the Bliss excess [19] of the same molecule?
A: The Bliss excess was -0.0601.

Q: And the Bliss excess [20]?
A: Its Bliss excess is -0.0873.

Q: How did the “combination Emax” value [1] turn out when CN(CCO)CC[C@H](CSc1ccccc1)Nc1ccc(S(=O)(=O)NC(=O)c2ccc(N3CCC([C@@H](O)c4ccccc4-c4ccc(Cl)cc4)CC3)cc2)cc1S(=O)(=O)C(F)(F)F [AZD4320] + Cc1cc2ncnn2cc1Nc1ncc2c(n1)n(C1CCOCC1)c(=O)n2C [AZD7648] (first compound max 1 µM, 7x7, partner max 10 µM) was run?
A: Its value is 0.448.

Q: And the “combination Emax” value [2]?
A: The value was 0.286.

Q: What about the “combination Emax” value [3] of the same molecule?
A: The value was 0.182.

Q: What about the “combination Emax” value [4] of the same molecule?
A: The value was 0.574.

Q: What about the “combination Emax” value [5] of the same molecule?
A: Its value is 0.177.

Q: What about the “combination Emax” value [6] of the same molecule?
A: Its value is 0.198.

Q: And the “combination Emax” value [7]?
A: Its value is 0.16.

Q: What about the Bliss excess [8] of the same molecule?
A: The Bliss excess was 0.0447.

Q: What about the Bliss excess [9] of the same molecule?
A: The Bliss excess was -0.0111.

Q: What about the Bliss excess [10] of the same molecule?
A: Its Bliss excess is 0.0627.

Q: What about the Bliss excess [11] of the same molecule?
A: Its Bliss excess is -0.0404.

Q: And the Bliss excess [12]?
A: The Bliss excess was -0.0061.

Q: What about the Bliss excess [13] of the same molecule?
A: The Bliss excess was -0.0144.

Q: What about the Bliss excess [14] of the same molecule?
A: Its Bliss excess is -0.0238.

Q: What about the Bliss excess [15] of the same molecule?
A: The Bliss excess was -0.0106.

Q: What about the Bliss excess [16] of the same molecule?
A: The Bliss excess was 0.0134.

Q: And the Bliss excess [17]?
A: The Bliss excess was -0.0253.

Q: What about the Bliss excess [18] of the same molecule?
A: Its Bliss excess is 0.0475.

Q: And the Bliss excess [19]?
A: Its Bliss excess is 0.0951.

Q: What about the Bliss excess [20] of the same molecule?
A: Its Bliss excess is -0.0475.

Q: Which results are given for COc1cc2ncnc(Nc3ccc(F)c(Cl)c3)c2cc1OCCCN1CCOCC1 [Gefitinib] + CC(C)n1c(=O)n(C)c2cnc3cc(F)c(-c4ccc(OCCCN5CCCCC5)nc4)cc3c21 [AZD1390] (first compound max 10 µM, 7x7, partner max 0.3 µM)?
A: combination Emax [1]: 0.304; combination Emax [2]: 0.131; combination Emax [3]: 0.626; combination Emax [4]: 0.442; combination Emax [5]: 0.225; combination Emax [6]: 0.271; combination Emax [7]: 0.112; Bliss excess [8]: -0.067; Bliss excess [9]: -0.0645; Bliss excess [10]: -0.0427; Bliss excess [11]: -0.0393; Bliss excess [12]: -0.0529; Bliss excess [13]: -0.0659; Bliss excess [14]: -0.045; Bliss excess [15]: -0.0386; Bliss excess [16]: -0.0756; Bliss excess [17]: -0.0353; Bliss excess [18]: -0.0243; Bliss excess [19]: -0.0612; Bliss excess [20]: -0.0566

Q: Which results are given for Cc1nc(Nc2ncc(C(=O)Nc3c(C)cccc3Cl)s2)cc(N2CCN(CCO)CC2)n1 [Dasatinib] + CC(=O)Nc1cccc(-n2c(=O)n(C3CC3)c(=O)c3c(Nc4ccc(I)cc4F)n(C)c(=O)c(C)c32)c1 [Trametinib] (first compound max 2 µM, 7x7, partner max 1 µM)?
A: combination Emax [1]: 0.973; combination Emax [2]: 0.573; combination Emax [3]: 0.681; combination Emax [4]: 0.814; combination Emax [5]: 0.342; combination Emax [6]: 0.442; combination Emax [7]: 0.136; Bliss excess [8]: 0.01; Bliss excess [9]: -0.0158; Bliss excess [10]: 0.011; Bliss excess [11]: -0.032; Bliss excess [12]: -0.0608; Bliss excess [13]: -0.0618; Bliss excess [14]: -0.0983; Bliss excess [15]: -0.0622; Bliss excess [16]: -0.0746; Bliss excess [17]: -0.0355; Bliss excess [18]: -0.0423; Bliss excess [19]: -0.0726; Bliss excess [20]: -0.0358
